Test results as given in PubChem BioAssay (NCI).
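Tested at 5 concentrations; 48 h exposure; 96-well plates; endpoints linearly interpolated, else capped at highest concentration. The concentration for 50% growth inhibition is given as GI50. TGI is the concentration that stops growth completely.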

Legend:
Assay in all cases: NCI anticancer screen, dose series, 48 h
HOP-92 NSCLC = system: HOP-92 NSCLC
HT29 colon = system: HT29 colon
HS 578T breast = system: HS 578T breast
MDA-MB-468 breast = system: MDA-MB-468 breast
SR leukemia = system: SR leukemia
DU-145 prostate = system: DU-145 prostate
T-47D breast = system: T-47D breast
KM12 colon = system: KM12 colon
HCT-15 colon = system: HCT-15 colon
EKVX NSCLC = system: EKVX NSCLC
NCI-H226 lung = system: NCI-H226 lung
HOP-62 NSCLC = system: HOP-62 NSCLC
NCI-H460 lung = system: NCI-H460 lung
NCI-H522 lung = system: NCI-H522 lung
MDA-MB-435 = system: MDA-MB-435
SN12C renal = system: SN12C renal
A549 NSCLC = system: A549 NSCLC
RPMI-8226 leukemia = system: RPMI-8226 leukemia
786-0 renal = system: 786-0 renal
SK-MEL-28 melanoma = system: SK-MEL-28 melanoma
UACC-257 melanoma = system: UACC-257 melanoma
UO-31 renal = system: UO-31 renal
U251 CNS = system: U251 CNS
MCF7 breast = system: MCF7 breast
TK-10 renal = system: TK-10 renal
HL-60(TB) leukemia = system: HL-60(TB) leukemia
SF-539 CNS = system: SF-539 CNS
ACHN renal = system: ACHN renal
NCI-H23 lung = system: NCI-H23 lung
IGROV1 ovarian = system: IGROV1 ovarian
OVCAR-5 ovarian = system: OVCAR-5 ovarian
SK-MEL-2 melanoma = system: SK-MEL-2 melanoma
UACC-62 melanoma = system: UACC-62 melanoma
MOLT-4 leukemia = system: MOLT-4 leukemia
SK-OV-3 ovarian = system: SK-OV-3 ovarian
SK-MEL-5 melanoma = system: SK-MEL-5 melanoma
A498 renal = system: A498 renal
MDA-MB-231 breast = system: MDA-MB-231 breast
OVCAR-4 ovarian = system: OVCAR-4 ovarian
MALME-3M melanoma = system: MALME-3M melanoma
HCC-2998 colon = system: HCC-2998 colon
OVCAR-3 ovarian = system: OVCAR-3 ovarian
OVCAR-8 ovarian = system: OVCAR-8 ovarian
RXF 393 renal = system: RXF 393 renal
CCRF-CEM leukemia = system: CCRF-CEM leukemia
LOX IMVI melanoma = system: LOX IMVI melanoma
HCT-116 colon = system: HCT-116 colon
SF-295 CNS = system: SF-295 CNS
SNB-75 CNS = system: SNB-75 CNS
NCI/ADR-RES ovarian = system: NCI/ADR-RES ovarian
PC-3 prostate = system: PC-3 prostate
CAKI-1 renal = system: CAKI-1 renal
M14 melanoma = system: M14 melanoma
BT-549 breast = system: BT-549 breast
SF-268 CNS = system: SF-268 CNS
SNB-19 CNS = system: SNB-19 CNS

For `COc1ccc(NC(=O)Cn2c(/C=C/c3ccc(N(C)C)cc3)nc3ccccc3c2=O)cc1`, the GI50 (HOP-92 NSCLC) was 3.65 µM, the TGI (HOP-92 NSCLC) was 18.9 µM and the GI50 (HT29 colon) was 6.32 µM. For the same molecule, the TGI (HT29 colon) was greater than 100 µM, the GI50 (HS 578T breast) was 4.88 µM and the TGI (HS 578T breast) was 74.9 µM. For the same molecule, the GI50 (MDA-MB-468 breast) was 3.11 µM, the TGI (MDA-MB-468 breast) was 21.2 µM and the GI50 (SR leukemia) was greater than 100 µM. The TGI (SR leukemia) was greater than 100 µM, the GI50 (DU-145 prostate) was 7.64 µM and the TGI (DU-145 prostate) was greater than 100 µM. It also gave a GI50 (T-47D breast) of 4.27 µM, a TGI (T-47D breast) greater than 100 µM and a GI50 (KM12 colon) greater than 100 µM. It also gave a TGI (KM12 colon) greater than 100 µM, a GI50 (HCT-15 colon) of 13.6 µM and a TGI (HCT-15 colon) greater than 100 µM. It also gave a GI50 (EKVX NSCLC) of 40.3 µM, a TGI (EKVX NSCLC) greater than 100 µM and a GI50 (NCI-H226 lung) of 2.31 µM. The TGI (NCI-H226 lung) was 6.24 µM, the GI50 (HOP-62 NSCLC) was 5 µM and the TGI (HOP-62 NSCLC) was 20.6 µM. The GI50 (NCI-H460 lung) was 3.63 µM, the TGI (NCI-H460 lung) was greater than 100 µM and the GI50 (NCI-H522 lung) was 5.69 µM. It also gave a TGI (NCI-H522 lung) of 29.4 µM, a GI50 (MDA-MB-435) of 7.19 µM and a TGI (MDA-MB-435) greater than 100 µM. The GI50 (SN12C renal) was greater than 100 µM, the TGI (SN12C renal) was greater than 100 µM and the GI50 (A549 NSCLC) was 13.9 µM. It also gave a TGI (A549 NSCLC) greater than 100 µM, a GI50 (RPMI-8226 leukemia) of 7.14 µM and a TGI (RPMI-8226 leukemia) greater than 100 µM. The GI50 (786-0 renal) was 2.03 µM, the TGI (786-0 renal) was 4.62 µM and the GI50 (SK-MEL-28 melanoma) was 6.07 µM. For the same molecule, the TGI (SK-MEL-28 melanoma) was greater than 100 µM, the GI50 (UACC-257 melanoma) was 84.5 µM and the TGI (UACC-257 melanoma) was greater than 100 µM. For the same molecule, the GI50 (UO-31 renal) was 2.92 µM, the TGI (UO-31 renal) was 31.3 µM and the GI50 (U251 CNS) was 3.72 µM. The TGI (U251 CNS) was 18.5 µM, the GI50 (MCF7 breast) was 4.35 µM and the TGI (MCF7 breast) was greater than 100 µM. For the same molecule, the GI50 (TK-10 renal) was 6.22 µM, the TGI (TK-10 renal) was 24.2 µM and the GI50 (HL-60(TB) leukemia) was greater than 100 µM. It also gave a TGI (HL-60(TB) leukemia) greater than 100 µM, a GI50 (SF-539 CNS) of 1.79 µM and a TGI (SF-539 CNS) of 3.67 µM. For the same molecule, the GI50 (ACHN renal) was 3.25 µM, the TGI (ACHN renal) was 11.4 µM and the GI50 (NCI-H23 lung) was 3.79 µM. It also gave a TGI (NCI-H23 lung) of 22.5 µM, a GI50 (IGROV1 ovarian) of 36.7 µM and a TGI (IGROV1 ovarian) greater than 100 µM. The GI50 (OVCAR-5 ovarian) was greater than 100 µM, the TGI (OVCAR-5 ovarian) was greater than 100 µM and the GI50 (SK-MEL-2 melanoma) was 16.1 µM. For the same molecule, the TGI (SK-MEL-2 melanoma) was 47.9 µM, the GI50 (UACC-62 melanoma) was 2.96 µM and the TGI (UACC-62 melanoma) was 13.1 µM. For the same molecule, the GI50 (MOLT-4 leukemia) was greater than 100 µM, the TGI (MOLT-4 leukemia) was greater than 100 µM and the GI50 (SK-OV-3 ovarian) was 3.22 µM. It also gave a TGI (SK-OV-3 ovarian) of 8.35 µM, a GI50 (SK-MEL-5 melanoma) of 2.96 µM and a TGI (SK-MEL-5 melanoma) of 10.4 µM. It also gave a GI50 (A498 renal) of 4.19 µM, a TGI (A498 renal) of 19.8 µM and a GI50 (MDA-MB-231 breast) of 2.61 µM. It also gave a TGI (MDA-MB-231 breast) of 6.84 µM, a GI50 (OVCAR-4 ovarian) of 28.9 µM and a TGI (OVCAR-4 ovarian) greater than 100 µM. For the same molecule, the GI50 (MALME-3M melanoma) was 3.95 µM, the TGI (MALME-3M melanoma) was 24 µM and the GI50 (HCC-2998 colon) was 6.21 µM. For the same molecule, the TGI (HCC-2998 colon) was greater than 100 µM, the GI50 (OVCAR-3 ovarian) was greater than 100 µM and the TGI (OVCAR-3 ovarian) was greater than 100 µM. The GI50 (OVCAR-8 ovarian) was 13.5 µM, the TGI (OVCAR-8 ovarian) was greater than 100 µM and the GI50 (RXF 393 renal) was 2.09 µM. For the same molecule, the TGI (RXF 393 renal) was 5.27 µM, the GI50 (CCRF-CEM leukemia) was greater than 100 µM and the TGI (CCRF-CEM leukemia) was greater than 100 µM. It also gave a GI50 (LOX IMVI melanoma) of 4.48 µM, a TGI (LOX IMVI melanoma) greater than 100 µM and a GI50 (HCT-116 colon) of 3.05 µM. For the same molecule, the TGI (HCT-116 colon) was 11.2 µM, the GI50 (SF-295 CNS) was 3 µM and the TGI (SF-295 CNS) was 11.9 µM. For the same molecule, the GI50 (SNB-75 CNS) was 3.86 µM, the TGI (SNB-75 CNS) was 39.9 µM and the GI50 (NCI/ADR-RES ovarian) was 3.51 µM. The TGI (NCI/ADR-RES ovarian) was 20.4 µM, the GI50 (PC-3 prostate) was 5.6 µM and the TGI (PC-3 prostate) was greater than 100 µM. It also gave a GI50 (CAKI-1 renal) of 4.12 µM, a TGI (CAKI-1 renal) of 20.7 µM and a GI50 (M14 melanoma) of 12.9 µM. The TGI (M14 melanoma) was greater than 100 µM, the GI50 (BT-549 breast) was 2.01 µM and the TGI (BT-549 breast) was 5.43 µM. The GI50 (SF-268 CNS) was 12.4 µM, the TGI (SF-268 CNS) was greater than 100 µM and the GI50 (SNB-19 CNS) was 13.1 µM. For the same molecule, the TGI (SNB-19 CNS) was 40.3 µM.
